{"source": "patent US20230165980A1", "about": "“METHODS FOR RADIOLABELING PSMA BINDING LIGANDS AND THEIR KITS” (Novartis AG, priority 2020, published 2023)", "experiment": "Radiochemical purity and radiochemical stability of ^68GaPSMA-11 by HPLC", "assay_type": "physicochemical", "method": "Radiochemical Purity and Identification of ^68GaPSMA-11 by HPLC\nChromatographic Conditions\nRadical Scavenger to be used for the improvement of the radiochemical stability of ^68Ga-PSMA-11, tests were performed according to a varied approach in order to consider all the parameters that may affect the radiochemical purity of the product (activity, pH, volume, amount of Gentisic Acid).\nStability tests were performed on the freeze dried product containing the final formulation. […] Kits manufactured with the final formulation, indeed, were stored at different stability conditions (2-8° C.; 25° C. and 40° C.) and were tested at different time points for API-assay, Radiochemical Purity and Radiochemical Stability of the radiolabelled product. Radiochemical Purity and Stability were assessed only eluting IRE Generator which represented the most stressful condition in terms of Radioactive Concentration (Volumic Activity).", "key": {"[1]": {"settings": "t4 h, Gentisic Acid 0 μg, IRE 17.19 mCi, 1 mL, pH 5.24"}, "[2]": {"settings": "t4 h, Gentisic Acid 200 μg, IRE 17.85 mCi, 1 mL, pH 5.22"}, "[3]": {"settings": "t4 h, Gentisic Acid 200 μg, IRE 18.07 mCi, 1 mL, pH 5.25"}, "[4]": {"settings": "t4 h, Gentisic Acid 200 μg, ITG 35.92 mCi, 4 mL, pH 4.83"}, "[5]": {"settings": "t4 h, Gentisic Acid 400 μg, IRE 17.44 mCi, 1 mL, pH 5.13"}, "[6]": {"settings": "t4 h, Gentisic Acid 400 μg, IRE 17.79 mCi, 1 mL, pH 5.11"}, "[7]": {"settings": "t4 h, Gentisic Acid 400 μg, ITG 16.9 mCi, 4 mL, pH 4.85"}, "[8]": {"settings": "t4 h, Gentisic Acid 400 μg, ITG 31.97 mCi, 4 mL, pH 4.81"}, "[9]": {"settings": "t4 h, Gentisic Acid 1000 μg, E&Z 15.65 mCi, 5 mL, pH 3.75"}, "[10]": {"settings": "t4 h, Gentisic Acid 1000 μg, IRE 17.1 mCi, 1 mL, pH 5.08"}, "[11]": {"settings": "t4 h, Gentisic Acid 1000 μg, ITG 30.9 mCi, 4 mL, pH 4.87"}, "[12]": {"settings": "t4 h, final formulation kit at Release, E&Z 15.65 mCi, 5 mL, pH 3.75"}, "[13]": {"settings": "t4 h, final formulation kit at Release, E&Z 16.80 mCi, 5 mL, pH 3.75"}, "[14]": {"settings": "t4 h, final formulation kit at Release, IRE 32.27 mCi, 1 mL, pH 4.95"}, "[15]": {"settings": "t4 h, final formulation kit at Release, IRE 32.95 mCi, 1 mL, pH 5.07"}, "[16]": {"settings": "t4 h, final formulation kit at Release, ITG 29.74 mCi, 4 mL, pH 4.67"}, "[17]": {"settings": "t4 h, final formulation kit at Release, ITG 30.90 mCi, 4 mL, pH 4.67"}, "[18]": {"settings": "t4 h, kit stored 3 months at 2-8° C., IRE 25.76 mCi, 1 mL, pH 5.29"}, "[19]": {"settings": "t4 h, kit stored 3 months at 25° C., IRE 24.56 mCi, 1 mL, pH 5.16"}, "[20]": {"settings": "t4 h, kit stored 3 months at 40° C., IRE 24.86 mCi, 1 mL, pH 5.23"}, "[21]": {"settings": "t4 h, kit stored 6 months at 2-8° C., IRE 19.90 mCi, 1 mL, pH 5.13"}, "[22]": {"settings": "t4 h, kit stored 6 months at 25° C., IRE 18.88 mCi, 1 mL, pH 5.09"}, "[23]": {"settings": "t4 h, kit stored 6 months at 40° C., IRE 19.34 mCi, 1 mL, pH 5.15"}}, "data": [{"substance": "^68Ga-PSMA-11 [[^68Ga] Gallium PSMA-11]", "values": [{"measurement": "[^68Ga] Gallium main degradant, HPLC", "setting": "t0 h, kit stored 6 months at 40° C., IRE 19.34 mCi, 1 mL, pH 5.15", "value": 0.42, "unit": "%"}, {"measurement": "[^68Ga] Gallium PSMA-11 (sum of stereosiomers), HPLC", "setting": "[1]", "value": 90.89, "unit": "%"}, {"measurement": "[^68Ga] Gallium free, HPLC", "setting": "[1]", "value": 0.14, "unit": "%"}, {"measurement": "[^68Ga] Gallium main degradant, HPLC", "setting": "[1]", "value": 7.32, "unit": "%"}, {"measurement": "[^68Ga] Gallium PSMA-11 (sum of stereosiomers), HPLC", "setting": "[2]", "value": 97.87, "unit": "%"}, {"measurement": "[^68Ga] Gallium free, HPLC", "setting": "[2]", "value": 0.00, "unit": "%"}, {"measurement": "[^68Ga] Gallium main degradant, HPLC", "setting": "[2]", "value": 1.80, "unit": "%"}, {"measurement": "[^68Ga] Gallium PSMA-11 (sum of stereosiomers), HPLC", "setting": "[3]", "value": 97.80, "unit": "%"}, {"measurement": "[^68Ga] Gallium free, HPLC", "setting": "[3]", "value": 0.00, "unit": "%"}, {"measurement": "[^68Ga] Gallium main degradant, HPLC", "setting": "[3]", "value": 1.74, "unit": "%"}, {"measurement": "[^68Ga] Gallium PSMA-11 (sum of stereosiomers), HPLC", "setting": "[4]", "value": 99.72, "unit": "%"}, {"measurement": "[^68Ga] Gallium free, HPLC", "setting": "[4]", "value": 0.00, "unit": "%"}, {"measurement": "[^68Ga] Gallium main degradant, HPLC", "setting": "[4]", "value": 0.00, "unit": "%"}, {"measurement": "[^68Ga] Gallium PSMA-11 (sum of stereosiomers), HPLC", "setting": "[5]", "value": 99.20, "unit": "%"}, {"measurement": "[^68Ga] Gallium free, HPLC", "setting": "[5]", "value": 0.00, "unit": "%"}, {"measurement": "[^68Ga] Gallium main degradant, HPLC", "setting": "[5]", "value": 0.68, "unit": "%"}, {"measurement": "[^68Ga] Gallium PSMA-11 (sum of stereosiomers), HPLC", "setting": "[6]", "value": 98.46, "unit": "%"}, {"measurement": "[^68Ga] Gallium free, HPLC", "setting": "[6]", "value": 0.00, "unit": "%"}, {"measurement": "[^68Ga] Gallium main degradant, HPLC", "setting": "[6]", "value": 1.54, "unit": "%"}, {"measurement": "[^68Ga] Gallium PSMA-11 (sum of stereosiomers), HPLC", "setting": "[7]", "value": 98.24, "unit": "%"}, {"measurement": "[^68Ga] Gallium free, HPLC", "setting": "[7]", "value": 0.00, "unit": "%"}, {"measurement": "[^68Ga] Gallium main degradant, HPLC", "setting": "[7]", "value": 0.00, "unit": "%"}, {"measurement": "[^68Ga] Gallium PSMA-11 (sum of stereosiomers), HPLC", "setting": "[8]", "value": 99.57, "unit": "%"}, {"measurement": "[^68Ga] Gallium free, HPLC", "setting": "[8]", "value": 0.00, "unit": "%"}, {"measurement": "[^68Ga] Gallium main degradant, HPLC", "setting": "[8]", "value": 0.00, "unit": "%"}, {"measurement": "[^68Ga] Gallium PSMA-11 (sum of stereosiomers), HPLC", "setting": "[9]", "value": 100.00, "unit": "%"}, {"measurement": "[^68Ga] Gallium free, HPLC", "setting": "[9]", "value": 0.00, "unit": "%"}, {"measurement": "[^68Ga] Gallium main degradant, HPLC", "setting": "[9]", "value": 0.00, "unit": "%"}, {"measurement": "[^68Ga] Gallium PSMA-11 (sum of stereosiomers), HPLC", "setting": "[10]", "value": 99.59, "unit": "%"}, {"measurement": "[^68Ga] Gallium free, HPLC", "setting": "[10]", "value": 0.00, "unit": "%"}, {"measurement": "[^68Ga] Gallium main degradant, HPLC", "setting": "[10]", "value": 0.41, "unit": "%"}, {"measurement": "[^68Ga] Gallium PSMA-11 (sum of stereosiomers), HPLC", "setting": "[11]", "value": 99.69, "unit": "%"}, {"measurement": "[^68Ga] Gallium free, HPLC", "setting": "[11]", "value": 0.00, "unit": "%"}, {"measurement": "[^68Ga] Gallium main degradant, HPLC", "setting": "[11]", "value": 0.06, "unit": "%"}, {"measurement": "[^68Ga] Gallium PSMA-11 (sum of stereosiomers), HPLC", "setting": "[12]", "value": 100.00, "unit": "%"}, {"measurement": "[^68Ga] Gallium free, HPLC", "setting": "[12]", "value": 0.00, "unit": "%"}, {"measurement": "[^68Ga] Gallium main degradant, HPLC", "setting": "[12]", "value": 0.00, "unit": "%"}, {"measurement": "[^68Ga] Gallium PSMA-11 (sum of stereosiomers), HPLC", "setting": "[13]", "value": 100.00, "unit": "%"}, {"measurement": "[^68Ga] Gallium free, HPLC", "setting": "[13]", "value": 0.00, "unit": "%"}, {"measurement": "[^68Ga] Gallium main degradant, HPLC", "setting": "[13]", "value": 0.00, "unit": "%"}, {"measurement": "[^68Ga] Gallium PSMA-11 (sum of stereosiomers), HPLC", "setting": "[14]", "value": 98.75, "unit": "%"}, {"measurement": "[^68Ga] Gallium free, HPLC", "setting": "[14]", "value": 0.00, "unit": "%"}, {"measurement": "[^68Ga] Gallium main degradant, HPLC", "setting": "[14]", "value": 0.54, "unit": "%"}, {"measurement": "[^68Ga] Gallium PSMA-11 (sum of stereosiomers), HPLC", "setting": "[15]", "value": 99.05, "unit": "%"}, {"measurement": "[^68Ga] Gallium free, HPLC", "setting": "[15]", "value": 0.03, "unit": "%"}, {"measurement": "[^68Ga] Gallium main degradant, HPLC", "setting": "[15]", "value": 0.42, "unit": "%"}, {"measurement": "[^68Ga] Gallium PSMA-11 (sum of stereosiomers), HPLC", "setting": "[16]", "value": 99.82, "unit": "%"}, {"measurement": "[^68Ga] Gallium free, HPLC", "setting": "[16]", "value": 0.00, "unit": "%"}, {"measurement": "[^68Ga] Gallium main degradant, HPLC", "setting": "[16]", "value": 0.00, "unit": "%"}, {"measurement": "[^68Ga] Gallium PSMA-11 (sum of stereosiomers), HPLC", "setting": "[17]", "value": 99.69, "unit": "%"}, {"measurement": "[^68Ga] Gallium free, HPLC", "setting": "[17]", "value": 0.00, "unit": "%"}, {"measurement": "[^68Ga] Gallium main degradant, HPLC", "setting": "[17]", "value": 0.06, "unit": "%"}, {"measurement": "[^68Ga] Gallium PSMA-11 (sum of stereosiomers), HPLC", "setting": "[18]", "value": 99.37, "unit": "%"}, {"measurement": "[^68Ga] Gallium free, HPLC", "setting": "[18]", "value": 0.00, "unit": "%"}, {"measurement": "[^68Ga] Gallium main degradant, HPLC", "setting": "[18]", "value": 0.49, "unit": "%"}, {"measurement": "[^68Ga] Gallium PSMA-11 (sum of stereosiomers), HPLC", "setting": "[19]", "value": 99.03, "unit": "%"}, {"measurement": "[^68Ga] Gallium free, HPLC", "setting": "[19]", "value": 0.00, "unit": "%"}, {"measurement": "[^68Ga] Gallium main degradant, HPLC", "setting": "[19]", "value": 0.38, "unit": "%"}, {"measurement": "[^68Ga] Gallium PSMA-11 (sum of stereosiomers), HPLC", "setting": "[20]", "value": 98.20, "unit": "%"}, {"measurement": "[^68Ga] Gallium free, HPLC", "setting": "[20]", "value": 0.00, "unit": "%"}, {"measurement": "[^68Ga] Gallium main degradant, HPLC", "setting": "[20]", "value": 0.37, "unit": "%"}, {"measurement": "[^68Ga] Gallium PSMA-11 (sum of stereosiomers), HPLC", "setting": "[21]", "value": 99.44, "unit": "%"}, {"measurement": "[^68Ga] Gallium free, HPLC", "setting": "[21]", "value": 0.00, "unit": "%"}, {"measurement": "[^68Ga] Gallium main degradant, HPLC", "setting": "[21]", "value": 0.44, "unit": "%"}, {"measurement": "[^68Ga] Gallium PSMA-11 (sum of stereosiomers), HPLC", "setting": "[22]", "value": 99.21, "unit": "%"}, {"measurement": "[^68Ga] Gallium free, HPLC", "setting": "[22]", "value": 0.00, "unit": "%"}, {"measurement": "[^68Ga] Gallium main degradant, HPLC", "setting": "[22]", "value": 0.33, "unit": "%"}, {"measurement": "[^68Ga] Gallium PSMA-11 (sum of stereosiomers), HPLC", "setting": "[23]", "value": 99.23, "unit": "%"}, {"measurement": "[^68Ga] Gallium free, HPLC", "setting": "[23]", "value": 0.00, "unit": "%"}, {"measurement": "[^68Ga] Gallium main degradant, HPLC", "setting": "[23]", "value": 0.46, "unit": "%"}]}]}
